Read-outs that look alike come from different tables or passages of the source.
What was measured:
[1] = Pharmacokinetic study in dogs; type: in vivo, Beagle dog; details: for bioavailability: Beagle, dog, plasma, po, read-out: Bioavailability (% F)
From the text: The results of the PK profile of AF292 in rats and Beagle dogs (overnight fasting; drug administered in water solution; gavage) are listed in Table 1.

tau [2] = assay: Tau phosphorylation, AT8 immunoblot; type: cell-based; details: 100 μM; to the control level
From the text: Following the experimental design of Sadot et al., J.Neurochem. […] By linking an M1 agonist to an antioxidant moiety tau phophorylation may be decreased, providing a new therapeutic strategy in a variety of CNS disease states due to combined damage due to oxidative stress and tau hyperphosphorylation.

human M1 receptor = molecular target: T1, human M1 receptor (Homo sapiens, UniProt P11229); assay: Arachidonic acid (AA) release, human M1; type: cell-based
T1 construct: expressed in transfected cells
T1 sequence (P11229 1-460): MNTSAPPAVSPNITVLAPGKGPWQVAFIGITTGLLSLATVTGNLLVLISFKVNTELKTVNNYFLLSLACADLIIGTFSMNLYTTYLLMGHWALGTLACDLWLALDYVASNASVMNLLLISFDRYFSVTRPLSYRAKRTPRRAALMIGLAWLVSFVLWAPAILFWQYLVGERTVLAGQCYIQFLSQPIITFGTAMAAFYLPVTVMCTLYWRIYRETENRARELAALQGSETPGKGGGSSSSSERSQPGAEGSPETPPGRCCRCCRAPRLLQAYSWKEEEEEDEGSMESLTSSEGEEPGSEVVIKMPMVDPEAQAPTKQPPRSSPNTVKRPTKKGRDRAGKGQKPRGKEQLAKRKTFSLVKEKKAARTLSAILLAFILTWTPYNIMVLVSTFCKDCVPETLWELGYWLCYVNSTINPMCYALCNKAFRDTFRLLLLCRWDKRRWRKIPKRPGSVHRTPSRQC

tau [3] = assay: tau-1 immunoreactivity in primary cell cultures (western blot); type: cell-based, rat; details: cortical and hippocampal cultures, 1-100 μM
Procedure: Primary cell cultures were grown as described in EXAMPLE 38. Cell supernatants were removed and the cells were washed once in medium prior to the addition of cold phosphate buffre saline ph=7.4 (PBS) solution containing 0.2 mM EDTA. Cells were scraped using a rubber policeman, transferred to Eppendorf tubes, and centrifuged at 4° C. Cell pellets were resuspended in lysis buffer (EDTA 5 mM, Tris 50 mM, Triton 1%, NaCl 150 mM) containing protease inhibitors (5 units/ml apronitin, […] and 0.1 mM PMSF, Sigma) and subjected to centrifugation at 4° C. Supernatants were transferred into Eppendorf tubes and kept at −20° C. till analyzed. The extent of tau-1 immunoreactivity (an antibody that recognizes a non-phosphorylated tau at Ser^199) was determined by western blots.

[4] = tested on: rat pheochromocytoma cells transfected with the M1 mAChR
Procedure: Confluent rat pheochromocytoma cells transfected with the M1 mAChR cultures were detached with trypsin, washed and plated in 24well, 6-well, 60-mm or 100-mm plates that were precoated with rat tail collagen (Sigma, Israel). Several experiments were performed in serum-free medium. For 3-(4,5-dimethylthiazol-2-yl)-2,5-diphenyl-tetrazolium bromide (MIT) assay, cells (1.5×10^4) were plated in 96-well collagen-precoated plates, in serum-free medium, with or without various drugs for 24 hours. For differentiation, cells were grown in the presence of 1% FCS and 1% HS, with addition of 50 ng/ml NGF for 7 days, to cause full differentiation. […] After 7 days, cells were washed and the medium was either replaced to serum-free, or cells were detached and replated in serum-free medium. Cells in serum-free medium were treated either with Aβ peptides that were previously “aged” or with H2O2. Tested compounds were added together with the insults for the indicated time, unless otherwise stated.
Cells were grown and treated on glass coverslips. After treatments, cells were fixed in cold methanol for 5 min at −20° C. followed by treatment with cold acetone at 4° C. for 2 min and washing in PBS. The coverslips were fluorescently stained with DAPI (4,6-diamidino-2-phenylindole; 5 mg/ml, Sigma, Israel) an intercalating agent that enables visualization of chromatin condensation in the cell nuclei for 15 min at room temperature. Cells were washed three times with PBS, mounted in a solution of glycerol containing 22 mM 1,4 dizabicyclo(2,2,2)octane (Sigma, Israel) to prevent fading, and viewed for nuclear chromatin morphology with a fluorescence microscope. Apoptotic and viable cells were counted (200 cells per coverslip, each experiment was performed in duplicates).
The TUNEL (Terminal deoxynucleotidyl transferase (TdT) mediated dUTP nick end labeling) method enzymatically labels DNA fragments at the 3′OH ends (representing the DNA strand breaks) with fluorescein-dUPT (Boehringer Mannheim, Germany). Briefly, following treatment, cells grown on Chamber slides were fixed with paraformaldehyde solution (4%) in PBS, pH 7.4 for 30 min at room temperature. Following washing with PBS cells were permeabilized using 0.1% Triton X-100, 0.1% sodium citrate solution, for 2 min on ice (4° C.), washed with PBS and 50 μl of TUNEL reaction mixture was added on each sample for 1 hr at 37° C., in a humidified chamber. Evans Blue reagent (diluted 1:2000 in PBS) was added for 5 min and the slides were viewed with fluorescence microscope.
Cells were differentiated for 7 days and detached from the plates with Trypsin. 10^6 cells were replated in 50-mm collagen-coated plates in serum-free medium in presence or absence of various treatments. 200-g-centrifuged pellets were prepared and resuspended in 300 μl PBS. 4 ml of cold methanol (−20° C.) were added to each test tube and the fixation was carried out for 15 min at −20° C. Cells were washed in PBS, spun and resuspended in 1 ml PBS. Five microliters of Propidium iodide stock solution (Sigma; 10 mg/ml) and 5 μl of 20 mg/ml solution of RNAse A were added for 5-10 min at room temperature. Fluorescence of individual nuclei was measured using Fluorescence Activated Cell Sorter (FACScan; Becton Dickinson Corp.) excited at 488 nm wavelength and collected through 575±21 nm BP filter. The data were analyzed by Cell Quest software computer system. By this method we were able to measure DNA content of the cells (apoptotic cells have less DNA). Cells in G1 phase of cell cycle are after mitosis and have less DNA than cells in G2/M phase (before and during mitosis). Apoptotic cells were identified as the pre-G1 phase.

SMILES | bioavailability ([1]; Dogs, 5 mg/kg. p.o.) [%] | phosphorylated tau (AT8) (tau [2]) | AA release vs. CCh (as 100%) (human M1 receptor) [%] | bioavailability ([1]; Dogs., 1 mg/kg, p.o.) [%] | Tmax ([1]; Dogs., 1 mg/kg, p.o.) [min] | tau-1 immunoreactivity (non-phosphorylated tau) (tau [3]) | H2O2-induced apoptosis (DAPI) [4] | apoptotic cell death induced by starvation (DAPI) [4] | apoptotic death during starvation (FACS) [4] | β-amyloid increased apoptotic population (FACS) [4] | β-amyloid 25-35 induced apoptosis (TUNEL) [4]
CC[C@@H]1SC2(CCNCC2)NC1=O [AF292, (S)-2-Ethyl-1-thia-4,8-diaza-spiro[4.5]decan-3-one] | 70 | induce dephosphorylation of tau proteins | > 88 | – | – | – | – | – | – | – | –
CC[C@@H]1SC2(CCN(C)CC2)NC1=O [AF267B, (S)-2-ethyl-8-methyl-1-thia-4,8-diaza-spiro[4.5]decan-3-one] | – | induce dephosphorylation of tau proteins | 100 | 53 | 34.8 to 45 | effective in elevating tau immunoreactivity | prevented | significantly protect | protected cells from apoptotic death | reduced the apoptotic population significantly | –
CC1=NCC2(CCN(C)CC2)S1 [AF150(S), 2,8-Dimethyl-1-thia-3,8-diaza-spiro[4.5]dec-2-ene] | – | – | – | – | – | effective in elevating tau immunoreactivity | prevented | significantly protect | protected cells from apoptotic death | reduced the apoptotic population significantly | able to block the apoptosis

Source: patent US7439251B2, “Methods and compositions for treatment of central and peripheral nervous system disorders and novel compounds useful therefor” (Israel Institute for Biological Research, priority 2002, dated 2008)
